This series can be described thus: Plasma pharmacokinetics of lenvatinib, carboplatin and paclitaxel. The format is in vivo. To be noted: human, intravenous, mean±s.d.

In the case of `CC(=O)O[C@H]1C(=O)[C@@]2(C)[C@H]([C@H](OC(=O)c3ccccc3)[C@]3(O)C[C@H](OC(=O)[C@H](O)[C@@H](NC(=O)c4ccccc4)c4ccccc4)C(C)=C1C3(C)C)[C@]1(OC(C)=O)CO[C@@H]1C[C@@H]2O` [Paclitaxel, reference compound], the clearance (CL, paclitaxel 200 mg m^−2, with lenvatinib 4 mg BID (n=6)) was 240 mL/min. Where the note is “Vss, paclitaxel 200 mg m^−2, with lenvatinib 4 mg BID (n=6)”, this molecule came in with a distribution volume (Vd) of 69.1 ± 27.7 L. The half-life (t1/2, paclitaxel 200 mg m^−2, with lenvatinib 4 mg BID (n=6)) was 6.65 ± 0.39 h.

In general, clearance refers to a measure of how efficiently the substance is removed, as volume per time. As a reminder, the Vd is the apparent volume that relates the amount in the body to the concentration in plasma or blood. The low end stands for confinement near the circulation, the high end for extensive tissue distribution. By half-life is commonly meant the time needed for the level to fall by half in the phase considered. High values mean slow decline, low ones rapid decline.
